The values below come from publication doi:10.1101/2024.12.25.630315 (bioRxiv, 2024).

Numbered stars: 1 amine (or outer) side, 2 acyl side, 3 side chain; on linkers, the order of the positions; unused ones are H or OH. Bridge positions count the residues as written; N and C are the ends. Square brackets hold non-standard residues; d marks the D form. Primed or numbered codes have the meaning given here. * marks the point of attachment. TATA = O=C(CC[*:1])N1CN(C(=O)CC[*:2])CN(C(=O)CC[*:3])C1; NOTA = O=C(O)CN1CCN(CC(=O)O)CCN(CC(=O)*)CC1; Hyp = O=C(O)[C@@H]1C[C@@H](O)CN1; hArg = N=C(N)NCCCC[C@H](N)C(=O)O; PEG12′ = not defined here

One series addresses T1, human Nectin-4 (Homo sapiens, UniProt Q96NY8).
T1 construct: purchased R&D systems 2659-N4–050
T1 sequence (Q96NY8 32-349 limits assumed): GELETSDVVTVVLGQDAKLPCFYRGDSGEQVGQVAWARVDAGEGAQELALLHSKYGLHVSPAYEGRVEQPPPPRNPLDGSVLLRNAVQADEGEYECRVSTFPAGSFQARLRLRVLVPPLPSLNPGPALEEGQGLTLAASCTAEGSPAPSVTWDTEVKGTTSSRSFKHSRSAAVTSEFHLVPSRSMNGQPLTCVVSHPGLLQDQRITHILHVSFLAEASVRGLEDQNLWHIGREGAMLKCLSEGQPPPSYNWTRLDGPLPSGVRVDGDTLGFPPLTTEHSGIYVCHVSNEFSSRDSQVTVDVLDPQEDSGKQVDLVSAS
Put plainly: Surface plasmon resonance, human Nectin-4. The format is binding. The settings on record: SPR Biacore T200, CM5 chip, 25 °C, His-tagged human Nectin-4 captured, PBS-P+1% DMSO, 1:1 kinetics fit; mean±SD n=3. The method, then: (§1) The affinity of AJ647 for human and mouse Nectin-4 recombinant proteins were evaluated by SPR. The experiments were conducted using a Biacore T200 instrument with a CM5 chip at 25 °C. The ligands used were His-Tagged human Nectin-4 (R&D systems, catalog # 2659-N4–050, 44 kDa, 0.2 mg/ml stock concentration) and mouse Nectin-4 proteins (R&D systems, catalog # 3116-N4–050, 45 kDa, 0.2 mg/ml stock concentration), which were immobilized onto the CM5 chip. AJ647 (3057.5 Da, 10 mM stock concentration) was used as the analyte, which flowed over the ligand immobilized surface. FC2 and FC4 was used as the experimental flow cell, while FC1 and FC3 served as the reference. Anti-His antibody (1 mg/ml stock concentration) was immobilized on all FCs using standard amine coupling chemistry. […] Human Nectin-4 was captured onto FC2 at a level of ~600 RU, with a 1:20 dilution and 10 μg/ml diluted concentration in PBS-P. Mouse Nectin-4 was captured onto FC4 at a level of 600 RU, with a 1:20 dilution and 10 μg/ml diluted concentration in PBS-P. The theoretical Rmax values were calculated based on the captured response values and are presented in table below, assuming a 1:1 interaction mechanism. […] All association and dissociation kinetics were evaluated by 1:1 kinetics model fitting.
(In general: In SPR one partner is held on a chip, and binding of the other changes the refractive index at the surface.)

Another series has as its target T2, mouse Nectin-4 (Mus musculus, UniProt Q8R007).
T2 construct: purchased R&D systems 3116-N4–050
T2 sequence (Q8R007 31-347 limits assumed): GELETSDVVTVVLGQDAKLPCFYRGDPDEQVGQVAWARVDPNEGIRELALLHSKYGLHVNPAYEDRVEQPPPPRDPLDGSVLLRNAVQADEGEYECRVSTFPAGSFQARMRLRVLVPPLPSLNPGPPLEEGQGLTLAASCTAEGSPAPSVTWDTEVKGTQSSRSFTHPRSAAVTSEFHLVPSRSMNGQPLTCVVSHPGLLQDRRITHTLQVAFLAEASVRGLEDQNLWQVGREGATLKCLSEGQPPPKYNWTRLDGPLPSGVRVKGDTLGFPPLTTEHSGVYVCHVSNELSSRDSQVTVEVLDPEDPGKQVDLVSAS
Nature of the series: Surface plasmon resonance, mouse Nectin-4. Particulars: SPR Biacore T200, CM5 chip, 25 °C, His-tagged mouse Nectin-4 captured, PBS-P+1% DMSO, 1:1 kinetics fit; mean±SD n=3. The format is binding. The method, then: as §1

Series [1] is classed as physicochemical. The protocol:
The ^68Ge/^68Ga generator was manually eluted using […] of 0.1M HCl (Ultrapure trace-metal-free) in four different fractions (2.4 mL, 1 mL, 1 mL, and 1.4 mL). […] The reaction mixture was incubated for 12 min at 65 °C in a temperature-controlled heating block and purified on a RP-HPLC system using a semi-preparative C-18 Luna column ([…], 10 × 250 mm Phenomenex, Torrance, CA). The HPLC condition was gradient elution starting with 20% acetonitrile: water (0.1% formic acid) and reaching 60% acetonitrile: water (0.1% formic acid) in 20 min at a flow rate of 5 mL/min. […] The desired radiolabeled fraction was concentrated under a stream of N2 at 60 °C, formulated in 10% EtOH in saline, and used for in vitro and in vivo studies. The whole radiolabeling process was completed in approximately 35 min. Quality control, stability studies, and chemical identity were also performed on the same HPLC system using the same HPLC gradient as described above.

The test system of the next series is T24 cells. Put plainly: In vitro binding of [^68Ga]AJ647 to T24 cells. It counts as cell-based. The settings on record: ~37 kBq (~1 μCi), 4°C, 1 hour, mean ± SD. The protocol: […] After incubation, cells were washed three times with ice cold PBS containing 0.1% Tween®20 and counted on an automated gamma counter. All cell radioactivity uptake studies were performed in quadruplicate for each cell line and repeated three times.

The nature of the next series: in vivo. The settings on record: male, mouse, iv, 1.85 MBq, total radioactivity. The protocol:
All mouse studies were conducted through Johns Hopkins University Animal Care and Use Committee (ACUC) approved protocols. Protocol M021M175 was approved by Chair, ACUC. Xenografts were established in five-to-six-weeks old, male, non-obese, diabetic, severe-combined immunodeficient gamma (NSG) mice obtained from the Johns Hopkins University Immune Compromised Animal Core.
Mice were injected with cancer cells subcutaneously in […] PBS (top right flank) for all tumor models. Following cell numbers were used: HT1376 (4 M), UC9 (3 M), UC14 (3 M), RT112 (1.5 M), T24(3 M), SCaBER (4 M). Mice with tumor volumes of 100–200 mm^3 were used for all experiments. A minimum of 4 mice were used for all biodistribution studies. A minimum of 7 mice were used in pharmacodynamics experiment to account for greater variability.
To validate imaging studies, ex vivo biodistribution studies were conducted in mice with tumors of size 100–200 mm^3. Mice received ~50 μCi (1.85 MBq) of [^68Ga]AJ647 in […] of 5% ethanol in saline intravenously and mice were sacrificed at 5–180 min after [^68Ga]AJ647 injection for pharmacokinetic evaluation (n=4 per timepoint). In all other studies, 60 min time-point was chosen. Selected tissues (Blood, Skin, Muscle, Bone, Salivary glands, Tumor, Lungs, Heart, Liver, Pancreas, Spleen, Kidneys, Bladder, Testicles) were collected, weighed, counted, and their %IA/g values calculated as described previously (PMID: 37793856). For EV pharmacodynamics studies, fewer organs were harvested to accommodate more number of mice.

The test system of a further series is Nectin-4. The settings on record: cited from earlier work. The source says:
A PEG linker was attached to the N-terminal cysteine residue of AJ632 (Fig. 2A). The free terminal amine was then conjugated to a NOTA chelator, enabling the successful radiolabeling with gallium-68 to produce [^68Ga]AJ647 and its non-radioactive analog [^natGa]AJ647. The radiolabeling process, performed as previously described ([16]), yielded [^68Ga]AJ647 with an 71.2±9.4% decay-corrected yield and 97±0.8% purity (n=20), ach ...

Series [2] deals with T3, Nectin-4 on urothelial carcinoma cells (human (endogenous in HT1376, UC14, UC9, …, UniProt Q96NY8 32-510)).
T3 construct: Nectin-4, endogenous on the surface of urothelial carcinoma cell lines; also called cell surface Nectin-4; Nectin-4 receptor; source: endogenous, on HT1376, UC14, UC9, RT112 and SCaBER cells (and their xenografts)
T3 sequence (looked up): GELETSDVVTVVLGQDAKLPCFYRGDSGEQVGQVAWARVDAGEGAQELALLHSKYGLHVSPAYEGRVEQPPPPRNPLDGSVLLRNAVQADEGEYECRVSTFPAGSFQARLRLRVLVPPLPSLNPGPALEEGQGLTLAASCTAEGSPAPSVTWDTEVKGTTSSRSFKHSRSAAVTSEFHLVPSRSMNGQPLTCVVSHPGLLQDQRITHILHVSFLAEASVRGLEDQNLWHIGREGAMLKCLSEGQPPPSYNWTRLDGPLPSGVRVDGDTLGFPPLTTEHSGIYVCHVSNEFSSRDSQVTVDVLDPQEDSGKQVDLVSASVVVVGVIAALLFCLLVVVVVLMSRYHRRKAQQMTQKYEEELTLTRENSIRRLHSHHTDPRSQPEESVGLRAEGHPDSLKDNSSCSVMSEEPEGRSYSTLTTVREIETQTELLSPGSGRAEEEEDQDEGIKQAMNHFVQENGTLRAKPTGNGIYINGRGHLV
Nature of the series: flow cytometry on cells; competition: HT1376 cells with non-radioactive AJ647 5.4 uM to 0.01 nM for 30 min at 4 °C, washed, then EV-FITC for 30 min at 4 °C; mean fluorescence intensity as percent of 0 nM AJ647. The settings on record: one partner purified. Background: In flow cytometry, cells or beads pass a laser one at a time.

Series [3] addresses T4, mouse Nectin-4 (recombinant) (mouse, UniProt Q8R007 31-347).
T4 chain: T2 sequence (Q8R007 31-347 limits assumed)
Put plainly: SPR.

The target of series [4] is T5, His-Tagged human Nectin-4 (human, UniProt Q96NY8 32-349).
T5 chain: T1 sequence (Q96NY8 32-349 limits assumed)
Nature of the series: SPR.

In general, Kd refers to the constant that tells how readily two partners part at equilibrium. Turning to `CSCC[C@@H]1NC(=O)[C@@H]2CSCCC(=O)N3CN(CN(C3)C(=O)CCSC[C@H](NC(=O)CCOCCOCCOCCOCCOCCOCCOCCOCCOCCOCCOCCOCCNC(=O)CN3CCN(CC(=O)O)CCN(CC(=O)O)CC3)C(=O)N3CCC[C@H]3C(=O)N[C@@H](Cc3cccc4ccccc34)C(=O)N[C@@H](CC(=O)O)C(=O)N2)C(=O)CCSC[C@@H](C(N)=O)NC(=O)[C@H](Cc2c[nH]c3ccccc23)NC(=O)[C@@H]2C[C@@H](O)CN2C(=O)[C@@H]2CCCN2C(=O)[C@H]([C@@H](C)O)NC(=O)[C@H](CO)NC(=O)[C@H](Cc2c[nH]c3ccccc23)NC(=O)[C@@H](CC(=O)O)NC(=O)[C@H](CCCCNC(=N)N)NC1=O` [[^natGa]AJ647, metal not drawn], the equilibrium dissociation constant (Kd) on human Nectin-4 came out at 0.015 ± 0.0101 µM; at mouse Nectin-4, 0.0141 ± 0.0034 µM.

In general, tissue uptake refers to the percentage of the injected dose found per gram of tissue. Regarding `CSCC[C@@H]1NC(=O)[C@@H]2CSCCC(=O)N3CN(CN(C3)C(=O)CCSC[C@H](NC(=O)CCOCCOCCOCCOCCOCCOCCOCCOCCOCCOCCOCCOCCNC(=O)CN3CCN(CC(=O)O)CCN(CC(=O)O)CC3)C(=O)N3CCC[C@H]3C(=O)N[C@@H](Cc3cccc4ccccc34)C(=O)N[C@@H](CC(=O)O)C(=O)N2)C(=O)CCSC[C@@H](C(N)=O)NC(=O)[C@H](Cc2c[nH]c3ccccc23)NC(=O)[C@@H]2C[C@@H](O)CN2C(=O)[C@@H]2CCCN2C(=O)[C@H]([C@@H](C)O)NC(=O)[C@H](CO)NC(=O)[C@H](Cc2c[nH]c3ccccc23)NC(=O)[C@@H](CC(=O)O)NC(=O)[C@H](CCCCNC(=N)N)NC1=O` [[^68Ga]AJ647, metal not drawn], the “stability of [^68Ga]AJ647 confirmed” value in series [1] is reported as “up to 3 hours”. Besides, the “[^68Ga]AJ647 binding (percent incubated activity)” value in the series on T24 cells turned out to be 0.2±0.11 %IA. Further, the tissue to tissue ratio at 0.25 h in “in vivo” (NSG) came to 1.31 ± 0.41. Also, the tissue to tissue ratio at 1 h in the series “in vivo” (NSG) was 4.6 ± 1.07. For the same molecule, the tissue uptake at 2 h in the series “in vivo” (Adrenals %IA/g) is 3.11 ± 0.21 %ID/g; in the series “in vivo” (Large Intestine %IA/g) it was 0.18 ± 0.06 %ID/g. Moreover, the tissue uptake at 3 h in the series “in vivo” (Adrenals %IA/g) was 3.01 ± 0.27 %ID/g; in “in vivo” (Brain %IA/g) it was 0.07 ± 0.01 %ID/g; in the series “in vivo” (Kidney %IA/g) it was 24.8 ± 8.74 %ID/g; in the series “in vivo” (Large Intestine %IA/g), 0.28 ± 0.13 %ID/g. The tissue uptake at 1 h in the series “in vivo” (Large Intestine %IA/g) was determined as 0.25 ± 0.13 %ID/g; in the series “in vivo” (Testicles %IA/g), 0.71 ± 0.24 %ID/g.

For the molecule “NH2-PEG12-(Cys-Pro-Nal-Asp-Cys-Met-hArg-dAsp-Trp-Ser-Thr-Pro-Hyp-Trp-Cys)-TATA based cyclization (bicyclic or more) [AJ632]”, the “affinity to Nectin-4” value with Nectin-4 was “low nanomolar”.

A word on the IC50: it is the concentration that gives 50% inhibition. As for {NOTA-PEG12′}-CP[Nal]DCM[hArg][dD]WSTP[Hyp]WC-NH2 (linker 1-5-15 via TATA) [AJ647], the IC50 in series [2] came to 0.035 µM.

The koff is the rate constant with which the complex falls apart. In the case of {NOTA-PEG12′}-CP[Nal]DCM[hArg][dD]WSTP[Hyp]WC-NH2 (linker 1-5-15 via TATA; also: natGa complexed in NOTA) [[^natGa]AJ647], the koff in series [3] came to 0.0101 s⁻¹; in series [4] it was 0.0106 s⁻¹.
